The results in this text go back to patent US11179306B2, “Use of salicylic acid derivatives as prodesquamating active agent” (L'OREAL, priority 2013, dated 2021).

Series [1] relates to epidermis of viable human skin. In words: Tolerance of the skin: morphology of the epidermis of treated excised human skin. Format: cell-based. The settings on record: 5% by weight in ethanol, compared with control skin. The method, then:
(§1) The protocol consists in applying the test solutions to skin samples maintained under survival conditions. The products tested are applied in a proportion of 15 μl per 1 cm^2 sample and are not rinsed off. Application is carried out twice, at D0 and then, 24 hours later, at D1. The morphology of the stratum corneum is analysed 48 hours after the first application, at D2, on a biopsy.
In order to validate the desquamating properties of the compounds A and B and to evaluate the tolerance of the skin to these treatments, the morphology of a control skin was in addition compared with the morphology of the skin samples treated with A and with B present in a content of 5% by weight in ethanol, according to the protocol described above.

Series [2] concerns stratum corneum of viable human skin. Nature of the series: Desquamating activity: cohesion of the stratum corneum on excised human skin maintained under survival conditions. Format: cell-based. Conditions: for Score (mean ± sd, n = 6), decrease in the cohesion of the stratum corneum / Appearance of the stratum corneum compared with control skin: 5% by weight in ethanol; for Score (mean ± sd, n = 6), decrease in the cohesion of the stratum corneum: 15 μl per 1 cm^2, applied at D0 and D1, histology at D2, score 0 (absence of modification) to 4 (very large decrease with exfoliation), 6 donors; for Appearance of the stratum corneum compared with control skin: morphology comparison; for Decrease in the cohesion of the stratum corneum with respect to the control skin (desquamating effect): at 5%, paired Student test, p<0.05. Here is the method:
The study is targeted at detecting the desquamating potential of the active agents in simplex solution by observation of the cohesion of the stratum corneum.
The keratolytic effect on excised skin maintained under survival conditions at 5% by weight in ethanol was evaluated. The study was carried out on viable human skin resulting from abdominal or breast reduction plastic surgery (6 donors).
as §1
The solutions applied are the following: • compound A of Example 1, at 5% by weight in ethanol, and • compound B of Example 2, at 5% by weight in ethanol.
By way of comparison, no solution is applied to some samples, referred to as controls.
The histological analysis of the horny layer is carried out on a skin section after staining with hemalaun-eosin (magnification 400).
6 samples were used for each of the tests (control, compound A and compound B). A paired Student test (p<0.05) was carried out in order to evaluate the significance of the difference with respect to the control.

Consider `O=C(O)c1c(O)cccc1CCCCCCCCO` [Compound A], for which the “Morphology of the epidermis (tolerance of the skin)” value in series [1] is on record as “preservation of the morphology of the epidermis”. Also, in series [2], the “Score (mean ± sd, n = 6), decrease in the cohesion of the stratum corneum” value came out at 1.85 ± 0.4; the “Appearance of the stratum corneum compared with control skin” value is reported as “decrease in the cohesion of the stratum corneum”; the “Decrease in the cohesion of the stratum corneum with respect to the control skin (desquamating effect)” value was “statistically significant”.

Regarding `O=C(O)CCCCCCCc1cccc(O)c1C(=O)O` [Compound B], in series [1], the “Morphology of the epidermis (tolerance of the skin)” value is listed as “preservation of the morphology of the epidermis”. Further, in series [2], the “Score (mean ± sd, n = 6), decrease in the cohesion of the stratum corneum” value is 1.75 ± 0.2; the “Appearance of the stratum corneum compared with control skin” value is listed as “decrease in the cohesion of the stratum corneum”; the “Decrease in the cohesion of the stratum corneum with respect to the control skin (desquamating effect)” value is listed as “statistically significant”.
